Drawing on patent publication US9643963B2, “Antiparasitic compounds” (Avista Pharma Solutions, Inc., priority 2013, dated 2017), this text covers EC50 for 9 compounds.

For this experiment, the system named is Dirofilaria immitis. Nature of the experiment: Dirofilaria immitis microfilariae motility assay or L4 stage assay (the source does not say which gave the EC50 values). To be noted: 72 h, read-out: EC50 values. It is filed as cell-based.
As for `CC(C)(C)COc1ccnc(-c2nsc(NC(=O)c3ccc(C(F)(F)F)cc3)n2)c1` [Compound 143, N-[3-[4-(2,2-dimethylpropoxy)-2-pyridyl]-1,2,4-thiadiazol-5-yl]-4-(trifluoromethyl)benzamide], the EC50 (usually the concentration needed to bring the measured effect to its halfway point) is under 5 µM.

As to `O=C(Nc1nc(-c2ccccn2)ns1)c1ccc(NCc2ccccc2)cc1` [Compound 118, 4-(benzylamino)-N-[3-(2-pyridyl)-1,2,4-thiadiazol-5-yl]benzamide], the EC50 was under 5 µM.

On to `O=C(Nc1nc(-c2ccccn2)ns1)c1ccc(Cc2ccccc2)cc1` [Compound 89, 4-benzyl-N-[3-(2-pyridyl)-1,2,4-thiadiazol-5-yl]benzamide], for which the EC50 is under 5 µM.

Regarding `O=C(Nc1nc(-c2ccccn2)ns1)c1ccc(C(=O)N2CCCCC2)cc1` [Compound 72, 4-(piperidine-1-carbonyl)-N-[3-(2-pyridyl)-1,2,4-thiadiazol-5-yl]benzamide], the EC50 is under 5 µM.

For `O=C(Nc1nc(-c2ccccn2)ns1)c1cccc(Nc2ccccc2)c1` [Compound 119, 3-anilino-N-[3-(2-pyridyl)-1,2,4-thiadiazol-5-yl]benzamide], the EC50 was under 5 µM.

Turning to `O=C(Nc1nc(-c2ccccn2)ns1)c1ccc(I)cc1` [Compound 67, 4-iodo-N-[3-(2-pyridyl)-1,2,4-thiadiazol-5-yl]benzamide], the EC50 is under 5 µM.

Turning to `O=C(Nc1nc(-c2ccccn2)ns1)c1ccc(NC2CCNCC2)cc1` [Compound 79, 4-(4-piperidylamino)-N-[3-(2-pyridyl)-1,2,4-thiadiazol-5-yl]benzamide], the EC50 was under 5 µM.

For `O=C(Nc1nc(-c2cccc(-c3cccnc3)n2)ns1)c1ccc(C(F)(F)F)cc1` [Compound 116, N-[3-[6-(3-pyridyl)-2-pyridyl]-1,2,4-thiadiazol-5-yl]-4-(trifluoromethyl)benzamide], the EC50 was under 5 µM.

As for `CC(C)(C)OC(=O)N1CCN(C(=O)c2ccc(C(=O)Nc3nc(-c4ccccn4)ns3)cc2)CC1` [Compound 70, tert-butyl 4-[4-[[3-(2-pyridyl)-1,2,4-thiadiazol-5-yl]carbamoyl]benzoyl]piperazine-1-carboxylate], the EC50 is under 5 µM.
